The target in this assay is T1, Gamma-aminobutyric acid receptor subunit alpha-3 (Homo sapiens, UniProt P34903).
T1 sequence (P34903 whole entry): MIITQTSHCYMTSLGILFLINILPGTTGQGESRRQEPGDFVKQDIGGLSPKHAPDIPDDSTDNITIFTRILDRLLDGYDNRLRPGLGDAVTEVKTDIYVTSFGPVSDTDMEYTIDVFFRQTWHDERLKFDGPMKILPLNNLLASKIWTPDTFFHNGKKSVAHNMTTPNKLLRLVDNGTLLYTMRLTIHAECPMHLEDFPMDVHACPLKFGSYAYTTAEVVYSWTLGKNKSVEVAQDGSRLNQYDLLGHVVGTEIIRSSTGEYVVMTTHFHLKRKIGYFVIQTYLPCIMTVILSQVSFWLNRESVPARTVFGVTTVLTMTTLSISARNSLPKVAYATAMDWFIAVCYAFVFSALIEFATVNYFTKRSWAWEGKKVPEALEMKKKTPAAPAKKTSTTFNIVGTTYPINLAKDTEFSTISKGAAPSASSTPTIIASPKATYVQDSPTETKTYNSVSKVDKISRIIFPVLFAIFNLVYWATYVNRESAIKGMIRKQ

A word on the Ki: it is the dissociation constant of the complex between target and ligand, obtained from inhibition or displacement. Higher therefore signals lower affinity.

Take `O=c1o[nH]c2c1CCNC2` [NSC_130546]: affinity was put at a Ki of 7.9 µM. As for `O=c1[nH][nH]c2c1CCNC2` [THIP, Aza-], the figure is above 10 µM.

For the origin of these results see BindingDB's records for doi:10.2174/1568007033482805 (University of Sydney, 2003).
